Consider 29 compounds from ChEMBL document CHEMBL1149513, “Arylpropionylpiperazines as antagonists of the human melanocortin-4 receptor” (Bioorg Med Chem Lett, 2006).

In data set [1] the target is T1, Melanocortin receptor 4 (Homo sapiens, UniProt P32245). The data set is described as follows: Displacement of [125I]NDP-MSH from human MC4R expressed in HEK293 cells. The data set is classed as cell-based.
Data set [2] is described as follows: Volume of distribution in mouse at 5 mg/kg, iv. The class given is ADME, organism-based. Also noted: dose 5 mg/kg, route intravenous. To be noted: in vivo, read-out: Vdss.
Data set [3] is described as follows: Bioavailability in mouse at 10 mg/kg, po. To be noted: in vivo. The data set is classed as ADME, organism-based.
The nature of data set [4]: Lipophilicity, Log D of the compound. The data set is classed as physicochemical. To be noted: octanol/water.
Data set [5] deals with Mus musculus. The data set is described as follows: AUC in mouse at 10 mg/kg, po. The class given is ADME, organism-based, Plasma. Also noted: dose 10 mg/kg, route oral. To be noted: in vivo.
Data set [6] in a line: Cmax in mouse at 10 mg/kg, po. The class given is ADME, organism-based. Also noted: dose 10 mg/kg, route oral. To be noted: in vivo.
Data set [7] in a line: Tmax in mouse at 10 mg/kg, po. The data set is classed as ADME, organism-based. Also noted: dose 10 mg/kg, route oral. To be noted: in vivo.
Data set [8] in a line: Drug level in mouse brain after 1 hr at 5 mg/kg, iv. The data set is classed as ADME, organism-based. Also noted: dose 5 mg/kg, route intravenous. To be noted: read-out: Drug uptake.
A short description of data set [9]: Drug level in mouse brain after 4 hrs at 5 mg/kg, iv. The class given is ADME, organism-based. Also noted: dose 5 mg/kg, route intravenous. The settings on record: read-out: Drug uptake.
Data set [10] can be described thus: Ratio of drug level in brain against plasma in mouse after 4 hrs at 5 mg/kg, iv. The data set is classed as ADME, organism-based. Also noted: dose 5 mg/kg, route intravenous. To be noted: read-out: BPR.
The nature of data set [11]: Half life in mouse at 5 mg/kg, iv. The data set is classed as ADME, organism-based. Also noted: dose 5 mg/kg, route intravenous. To be noted: in vivo.
A short description of data set [12]: Ratio of drug level in brain against plasma in mouse after 1 hr at 5 mg/kg, iv. The class given is ADME, organism-based. Also noted: dose 5 mg/kg, route intravenous. The settings on record: read-out: BPR.
The target in data set [13] is Melanocyte-stimulating hormone receptor (Homo sapiens) (UniProt Q01726). The data set is described as follows: Inhibition of [125I]NDP-MSH binding to human MC1R expressed in HEK293 cells. The data set is classed as cell-based. The settings on record: concentration not given here.
The target in data set [14] is Melanocortin receptor 3 (Homo sapiens, UniProt P41968). The data set is described as follows: Displacement of [125I]NDP-MSH from human MC3R expressed in HEK293 cells. The data set is classed as cell-based.
Data set [15] has as its target Melanocortin receptor 5 (Homo sapiens, UniProt P33032). The data set is described as follows: Displacement of [125I]NDP-MSH from human MC5R expressed in HEK293 cells. The class given is cell-based. On the technique in general: In a radioligand displacement assay an active substance lowers the binding of a labelled ligand.
A short description of data set [16]: Clearance in mouse at 5 mg/kg, iv. The data set is classed as ADME, organism-based. Also noted: dose 5 mg/kg, route intravenous. The settings on record: in vivo.
Data set [17] deals with Mus musculus. The experiment in a line: AUC in mouse at 5 mg/kg, iv. The data set is classed as ADME, organism-based, Plasma. Also noted: dose 5 mg/kg, route intravenous. The settings on record: in vivo.
Data set [18] deals with T1, Melanocortin receptor 4. The experiment in a line: Activity at MC4R assessed as inhibition of alpha-MSH-stimulated cAMP production. The class given is functional.
Data set [19] has as its target Melanocortin receptor (M4 and M5) (Homo sapiens) (UniProt P32245+P33032). The data set is described as follows: Selectivity for MC4R over MC5R. The class given is protein assay.

Bounds are passed on as bounds.

T1 sequence (P32245 whole entry): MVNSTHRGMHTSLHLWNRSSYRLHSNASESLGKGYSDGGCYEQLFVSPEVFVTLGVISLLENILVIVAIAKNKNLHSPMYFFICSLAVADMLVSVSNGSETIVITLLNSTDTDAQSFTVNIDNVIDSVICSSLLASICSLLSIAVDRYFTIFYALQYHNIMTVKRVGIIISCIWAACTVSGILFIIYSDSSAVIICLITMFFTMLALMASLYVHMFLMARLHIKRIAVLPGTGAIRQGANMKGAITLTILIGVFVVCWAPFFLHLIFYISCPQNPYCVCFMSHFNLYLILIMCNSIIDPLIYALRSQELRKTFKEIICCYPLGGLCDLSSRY
Melanocortin receptor 5, sequence (P33032 whole entry): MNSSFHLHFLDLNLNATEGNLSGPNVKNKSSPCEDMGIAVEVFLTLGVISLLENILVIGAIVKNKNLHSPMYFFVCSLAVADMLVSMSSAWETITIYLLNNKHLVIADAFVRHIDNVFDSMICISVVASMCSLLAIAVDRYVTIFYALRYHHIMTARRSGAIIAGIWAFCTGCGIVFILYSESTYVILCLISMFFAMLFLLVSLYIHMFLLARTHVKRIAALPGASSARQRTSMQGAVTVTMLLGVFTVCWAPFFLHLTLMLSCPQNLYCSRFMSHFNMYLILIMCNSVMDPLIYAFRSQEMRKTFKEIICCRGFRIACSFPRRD
Melanocortin receptor 3, sequence (P41968 whole entry): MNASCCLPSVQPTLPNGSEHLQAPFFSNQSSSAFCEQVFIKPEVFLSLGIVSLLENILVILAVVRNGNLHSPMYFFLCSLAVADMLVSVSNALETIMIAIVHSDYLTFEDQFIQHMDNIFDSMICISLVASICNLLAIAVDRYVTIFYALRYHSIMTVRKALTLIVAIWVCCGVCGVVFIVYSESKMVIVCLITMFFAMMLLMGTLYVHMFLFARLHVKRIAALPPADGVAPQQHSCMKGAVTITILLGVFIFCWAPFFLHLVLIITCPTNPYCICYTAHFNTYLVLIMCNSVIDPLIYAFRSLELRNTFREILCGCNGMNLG
Melanocyte-stimulating hormone receptor (Homo sapiens), sequence (Q01726 whole entry, looked up): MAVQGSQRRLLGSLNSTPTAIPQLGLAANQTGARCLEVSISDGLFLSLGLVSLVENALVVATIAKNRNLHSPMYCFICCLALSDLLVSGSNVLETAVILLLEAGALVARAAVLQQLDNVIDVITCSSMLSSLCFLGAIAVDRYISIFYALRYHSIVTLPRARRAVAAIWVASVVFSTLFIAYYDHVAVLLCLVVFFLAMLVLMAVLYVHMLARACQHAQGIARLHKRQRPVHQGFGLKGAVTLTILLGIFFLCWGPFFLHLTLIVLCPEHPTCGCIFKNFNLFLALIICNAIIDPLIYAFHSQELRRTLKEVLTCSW
Melanocortin receptor (M4 and M5) (Homo sapiens), sequence (P32245 whole entry, looked up): as the sequence (P32245 whole entry) above
Melanocortin receptor (M4 and M5) (Homo sapiens), sequence (P33032 whole entry, looked up): as the sequence (P33032 whole entry) above

By Ki is commonly meant a measure of affinity in units of concentration, obtained from inhibition or displacement. A low value points to a stronger hold on the target. Turning to `COc1cccc(CCC(=O)N2CCN(c3ccc(C(F)(F)F)cc3[C@@H](N)CC(C)C)CC2)c1`, in [1], the Ki stood at 4000 nM.

`CC(N)c1cc(C(F)(F)F)ccc1N1CCN(C(=O)CCc2ccc(Cl)cc2Cl)CC1` (centres undefined): the Ki in [1] is 490 nM.

In the case of `CC(C)C[C@H](N)c1cc(F)ccc1N1CCN(C(=O)CCc2ccc(Cl)cc2Cl)CC1`, in [1], the affinity, expressed as Ki, was 94 nM. Against the preceding compound, the Ki is about 5.2-fold lower.

Turning to `CC(C)C[C@H](N)c1cc(C(F)(F)F)ccc1N1CCN(C(=O)CCc2c[nH]c3ccccc23)CC1`, in data set [1], the Ki came to 640 nM.

In turn, `Cc1cccc(CCC(=O)N2CCN(c3ccc(C(F)(F)F)cc3[C@@H](N)CC(C)C)CC2)c1` returned a Ki in data set [1] of 2100 nM. Compared with the last compound, the Ki is about 3.3-fold higher.

For `CCC(C)[C@H](N)c1cc(C(F)(F)F)ccc1N1CCN(C(=O)CCc2ccc(OC)cc2Cl)CC1` (some centres undefined), the affinity in [1] corresponds to a Ki of 57 nM.

For `CCC(C)C(N)c1cc(C(F)(F)F)ccc1N1CCN(C(=O)CCc2ccc(Cl)cc2Cl)CC1` (centres undefined), the Ki in [1] is 160 nM.

The compound `CC(C)C[C@H](N)c1cc(C(F)(F)F)ccc1N1CCN(C(=O)CCc2cn(C)c3ccccc23)CC1` showed an inhibition constant Ki in data set [1] of 3000 nM.

In the case of `CCC(C)[C@H](NCCCN)c1cc(C(F)(F)F)ccc1N1CCN(C(=O)CCc2ccc(Cl)cc2Cl)CC1` (some centres undefined), affinity in data set [1] was put at a Ki of 30 nM.

On to `CCN[C@H](c1cc(C(F)(F)F)ccc1N1CCN(C(=O)CCc2ccc(Cl)cc2Cl)CC1)C(C)CC` (some centres undefined), for which the Ki in data set [1] was 92 nM. Against the preceding compound, the Ki is about 3.1-fold higher.

In [1], `CCC(C)[C@H](NCCc1ccccc1)c1cc(C(F)(F)F)ccc1N1CCN(C(=O)CCc2ccc(Cl)cc2Cl)CC1` (some centres undefined) had a Ki of 2600 nM. This Ki lies about 28-fold higher than the previous one.

What is called bioavailability is dose-corrected exposure relative to a reference, in per cent. Low values mean poor availability, high ones good availability. For orientation: logD means lipophilicity at a set pH, counting ionised and neutral species. Higher therefore signals a more lipophilic compound. For orientation: AUC means concentration integrated over time. Usually Cmax stands for the peak of the concentration-time curve. One may read the Tmax as the time at which the peak concentration occurs. The half-life is how long it takes for the measured level to halve. The term inhibition denotes the drop in the measured response relative to a control, in per cent. Read a high inhibition as strong suppression. Broadly, the clearance is the rate of elimination divided by the concentration. Lower therefore signals a low capacity for elimination. One may read the IC50 as the concentration needed to halve the response being measured. Regarding `CC(C)C[C@H](NC(=O)CN)c1cc(C(F)(F)F)ccc1N1CCN(C(=O)CCc2ccc(Cl)cc2Cl)CC1`, the Vd in data set [2] was 8.8 L/kg. Further, the bioavailability in data set [3] was 11.2%. This compound also displayed a logD in data set [4] of 4.5. In addition, the AUC in [5] was 687 ng·h/mL; in [17], 3070 ng·h/mL. For the same compound, in data set [6], the Cmax was 115 ng/mL. The Tmax in data set [7] stood at 2 h. Besides, in data set [8], the concentration at 1 h was found to be 43 ng/g. The concentration at 4 h in data set [9] is 33 ng/g. In addition, the Kp at 4 h in [10] turned out to be 0.17. The same compound had a half-life in data set [11] of 3.8 h. Further, the Kp at 1 h in [12] stood at 0.08. Further, the Ki in [1] was determined as 19 nM; in data set [14], 1200 nM; in data set [15], 500 nM. The compound further showed an inhibition in data set [13] of 18%. In [16], this compound gave a clearance of 26.9 mL/min/kg. Besides, the IC50 in [18] stood at 1300 nM. In addition, the Selectivity ratio in [19] is over 25.

`CCC(C)[C@H](NC(C)=O)c1cc(C(F)(F)F)ccc1N1CCN(C(=O)CCc2ccc(Cl)cc2Cl)CC1` (some centres undefined) registered a Ki in data set [1] of 360 nM. This counts as sub-micromolar.

`CC(C)C[C@H](N)c1cc(C(F)(F)F)ccc1N1CCN(C(=O)CCc2ccc(O)cc2)CC1` registered a Ki in [1] of over 10000 nM.

For `CC(C)C[C@H](N)c1cc(C(F)(F)F)ccc1N1CCN(C(=O)CCc2ccc(Cl)cc2Cl)CC1`, the Ki in [1] was found to be 74 nM.

`CCC(C)[C@H](NC(=O)CCN)c1cc(C(F)(F)F)ccc1N1CCN(C(=O)CCc2ccc(Cl)cc2Cl)CC1` (some centres undefined): in data set [2], the Vd was found to be 1.6 L/kg. Also, in [3], the bioavailability was 26.1%. In [4], the logD turned out to be 4. In addition, the figures for the AUC in data set [5] and in data set [17] were 12100 ng·h/mL and 23100 ng·h/mL, respectively. Besides, in [6], the highest concentration (Cmax) is 1170 ng/mL. Further, the Tmax in data set [7] turned out to be 6 h. The concentration at 1 h in data set [8] turned out to be 62 ng/g. Besides, the concentration at 4 h in data set [9] came out at 70 ng/g. Besides, the Kp at 4 h in data set [10] was 0.03. Moreover, the half-life in [11] is 5.2 h. Further, in [12], the Kp at 1 h worked out at 0.02. In addition, the Ki in data set [1] amounted to 13 nM; in data set [14] it was 800 nM; in data set [15], 170 nM. Further, the inhibition in [13] worked out at 17%. This compound also came in with a clearance in data set [16] of 3.5 mL/min/kg. For the same compound, in [18], the IC50 turned out to be 1100 nM.

Consider `CCC(C)CN[C@H](c1cc(C(F)(F)F)ccc1N1CCN(C(=O)CCc2ccc(Cl)cc2Cl)CC1)C(C)CC` (some centres undefined), for which the inhibition constant Ki in data set [1] amounted to 2800 nM.

Consider `CCOCC(N)c1cc(F)ccc1N1CCN(C(=O)CCc2ccc(Cl)cc2Cl)CC1` (centres undefined), for which the affinity in data set [1], expressed as Ki, was 690 nM.

For `CCC(C)[C@H](NS(C)(=O)=O)c1cc(C(F)(F)F)ccc1N1CCN(C(=O)CCc2ccc(Cl)cc2Cl)CC1` (some centres undefined), the inhibition constant Ki in data set [1] was found to be 1800 nM.

Regarding `COCCN[C@@H](CC(C)C)c1cc(C(F)(F)F)ccc1N1CCN(C(=O)CCc2ccc(Cl)cc2Cl)CC1`, the Ki in data set [1] is 620 nM.

As for `CC(C)C[C@H](N)c1cc(C(F)(F)F)ccc1N1CCN(C(=O)CCc2ccc(S(C)(=O)=O)cc2)CC1`, the affinity in [1], expressed as Ki, was 4900 nM.

In the case of `CCC(C)[C@H](N)c1cc(C(F)(F)F)ccc1N1CCN(C(=O)CCc2ccc(Cl)cc2)CC1` (some centres undefined), the affinity in data set [1], expressed as Ki, was 86 nM.

`CC(C)C[C@H](N)c1cc(C(F)(F)F)ccc1N1CCN(C(=O)CCc2cccc(C(F)(F)F)c2)CC1`: affinity in data set [1] was put at a Ki of 2200 nM. Against the preceding compound, the Ki is about 26-fold higher.

Regarding `CCC(C)[C@H](NC[C@H](C)N)c1cc(C(F)(F)F)ccc1N1CCN(C(=O)CCc2ccc(Cl)cc2Cl)CC1` (some centres undefined), in data set [1], the inhibition constant (Ki) was determined as 89 nM.

Regarding `NCCC(=O)NC(COCc1ccccc1)c1cc(F)ccc1N1CCN(C(=O)CCc2ccc(Cl)cc2Cl)CC1` (centres undefined), the affinity in data set [1], expressed as Ki, was 210 nM.

For `COc1ccc(OC)c(CCC(=O)N2CCN(c3ccc(C(F)(F)F)cc3[C@@H](N)CC(C)C)CC2)c1`, the Ki in [1] was found to be 2500 nM.

Regarding `CCC(C)[C@H](NC(=O)OC)c1cc(C(F)(F)F)ccc1N1CCN(C(=O)CCc2ccc(Cl)cc2Cl)CC1` (some centres undefined), the affinity in [1], expressed as Ki, was 2400 nM.

`CN[C@@H](CC(C)C)c1cc(C(F)(F)F)ccc1N1CCN(C(=O)CCc2ccc(Cl)cc2Cl)CC1` gave an inhibition constant Ki in [1] of 1900 nM.

Take `CCC(C)[C@H](NC(=O)CN)c1cc(C(F)(F)F)ccc1N1CCN(C(=O)CCc2ccc(Cl)cc2Cl)CC1` (some centres undefined): the affinity in data set [1] corresponds to a Ki of 18 nM.
